Reference: patent US20080299098A1, “Broad-Spectrum Antibacterial and Antifungal Activity of Lactobacillus Johnsonii D115” (priority 2007, published 2008)
Where two headings read alike, the source gives them in different places.

Experiments:
[1] = system: Brachyspira hyodysenteriae; conditions: for Plate count: hydrogen peroxide 3100 μM
Brachyspira pilosicoli = conditions: for Plate count: hydrogen peroxide 3300 μM
[2] = hydrogen peroxide at approximately 3,000 μM, 2 h

`OO` [hydrogen peroxide] was tested, and the Plate count ([1]; 0 hr) was 5.0 × 10^5 CFU per ml, the Plate count ([1]; 2 hr) was 9 CFU per ml and the reduction of count [1, 2] was 4 logs. The Plate count (Brachyspira pilosicoli; 0 hr) was 6.00 × 10^6 CFU per ml, the Plate count (Brachyspira pilosicoli; 2 hr) was 3.00 × 10^1 CFU per ml and the reduction of count (Brachyspira pilosicoli; [2]) was 5 logs.
